Peptide text beside a SMILES is read from it.
assay: Amount of magnesium captured per 100 g of substance (X), ion-selective electrode method; type: physicochemical
Method: As for the substance (X), the amount of magnesium captured per 100 g of the substance (X) is preferably 1 g or more, as measured by the ion-selective electrode method.
When the substance (X) is a hydrate, 100 g of the substance (X) refers to 100 g by weight excluding hydration water.
The measurement by the ion-selective electrode method is performed using 2 mM of the substance (X) relative to a 1 mM aqueous MgCl2 solution having a temperature of 20° C. and a pH of 7.
Each substance (X) was subjected to measurement of the amount (g) of magnesium captured per 100 g of the substance (X) by the ion-selective electrode method as follows. For (X-5), the amount of magnesium captured per 100 g of Na2WO4 contained in (X-5) was measured. For (X-16), the amount of magnesium captured per 100 g of adenosine triphosphate disodium contained in (X-16) was measured.
The measurement by the ion-selective electrode method was performed using 2 mM of the substance (X) relative to a 1 mM aqueous MgCl2 solution having a temperature of 20° C. and a pH of 7.

Q: Which “Amount of magnesium (g) captured per 100 g of substance (X)” value (“Amount … per 100 g of substance (X)” for short) does the source give for `O=C(O)CC(O)(CC(=O)O)C(=O)O` [Example X-9, Citric acid] here?
A: 20 g

Q: Which “Amount … per 100 g of substance (X)” value does the source give for `O=P([O-])([O-])OP(=O)([O-])OP(=O)([O-])[O-].[Na+].[Na+].[Na+].[Na+].[Na+]` [Example X-1, Pentasodium triphosphate] here?
A: 5 g

Q: For `O=C(O)CC(O)C(=O)O` (stereo not shown) [Example X-8, Malic acid], which “Amount … per 100 g of substance (X)” value is on record?
A: 15 g

Q: With `CC(=O)CCC(=O)O` [Example X-4, Levulinic acid] as the compound, how does the “Amount … per 100 g of substance (X)” value read?
A: 2 g

Q: Which “Amount … per 100 g of substance (X)” value does the source give for `CC(=O)CC(C)=O` [Example X-2, Acetylacetone] here?
A: 3 g

Q: For `Oc1cccc2cccnc12` [Example X-14, 8-Quinolinol], which “Amount … per 100 g of substance (X)” value is on record?
A: 2 g

Q: Which “Amount … per 100 g of substance (X)” value does the source give for `O=C(O)CNCC(=O)O` [Example X-13, Iminodiacetic acid] here?
A: 8 g

Q: For `CC(=O)CC(=O)c1ccccc1` [Example X-3, Benzoylacetone], which “Amount … per 100 g of substance (X)” value is on record?
A: 3 g

Q: Which “Amount … per 100 g of substance (X)” value does the source give for `NCC(=O)NCC(=O)O` [Example X-6, Glycylglycine] (H-Gly-Gly-OH) here?
A: 2 g

Q: With `O.O.[Na+].[Na+].[O]=[W](=[O])([O-])[O-]` [Example X-5, Sodium tungstate dihydrate] as the compound, how does the “Amount … per 100 g of substance (X)” value read?
A: 2 g

Q: With `O=C(O)CN(CCN(CC(=O)O)CC(=O)O)CC(=O)O` [Example X-12, Ethylenediaminetetraacetic acid] as the compound, how does the “Amount … per 100 g of substance (X)” value read?
A: 10 g

Q: With `Nc1ncnc2c1ncn2[C@@H]1O[C@H](COP(=O)([O-])OP(=O)([O-])OP(=O)(O)O)[C@@H](O)[C@H]1O.O.O.O.[Na+].[Na+]` [Example X-16, Adenosine triphosphate disodium trihydrate] as the compound, how does the “Amount … per 100 g of substance (X)” value read?
A: 5 g

Q: With `O=C(O)C(O)C(O)C(=O)O` (stereo not shown) [Example X-15, Tartaric acid] as the compound, how does the “Amount … per 100 g of substance (X)” value read?
A: 9 g

Q: Which “Amount … per 100 g of substance (X)” value does the source give for `O=C(O)[C@H](O)[C@@H](O)[C@H](O)[C@H](O)CO` [Example X-10, Gluconic acid] here?
A: 30 g

Q: With `N[C@@H](CCC(=O)O)C(=O)O` [Example X-7, Glutamic acid] as the compound, how does the “Amount … per 100 g of substance (X)” value read?
A: 2 g

Q: Which “Amount … per 100 g of substance (X)” value does the source give for `O=C[C@H](O)[C@@H](O)[C@H](O)[C@H](O)C(=O)O` [Example X-11, Glucuronic acid] here?
A: 15 g
